From patent US11020494B2, “Animal models for nonalcoholic fatty liver disease” (CROWN BIOSCIENCE INC. (TAICANG), priority 2017, dated 2021)

Experiments:
FATZO mice [1] = settings: for serum glucose concentrations in the fed state: after 8 weeks, vehicle 315.6±35.4; for serum glucose concentrations in the fed state / body weight change over the 8-week observation period: rosiglitazone 10 mg/kg/day, metformin 150 mg/kg/day; for body weight change over the 8-week observation period: oral once daily 8 weeks, vehicle 1.8±0.2
Protocol: Male FATZO mice (9 weeks of age, n=40) were maintained on Purina 5008 regular rodent chow and reverse osmosis water ad libitum. Mice were housed 3 per cage and acclimated to study environment for 7 days prior to study. At 10 weeks of age, mice were fasted for 6 hours, body weight was recorded and an OGTT performed. Glucose and insulin were assayed at 0, 30, 60, 90, 120 and 180 minutes following a 2 g/kg glucose load. Glucose concentrations were obtained from StatStrip glucometer and insulin was assayed at each time-point using the insulin kit mentioned above. Insulin sensitivity index (ISI) was calculated using a formula modified from Matsuda and DeFronzo [39] by changing the numerator to 10,000 and using glucose and insulin AUCs instead of average glucose and insulin levels ([…]/square root of [fasting glucose x fasting insulin]×[glucose AUC×insulin AUC during OGTT]).
Animals were randomized into 3 groups of 10 based on baseline ISI and body weight. […] Compounds were administered orally once daily by gavage for 8 weeks. Body weight was recorded weekly.
Following 8 weeks of treatment, OGTT was repeated one hour after compound administration. Whole blood was taken from tail clip and processed to serum. Treatment effects on glucose disposal, fed serum glucose, HbAlc, and ISI were compared to vehicle.

FATZO mice [2] = experiment: Effect of leptin on food intake in FATZO mice; assay type: in vivo, mouse; settings: leptin 10 mg/kg, first 4 hours of darkness
Protocol: Two age groups of male FATZO mice were selected for leptin levels and the effect of leptin on food intake. Additional age matched groups of C57BL/6 were bled for leptin levels. Animals were acclimated to reverse light cycle for 7 days before being put on protocol. […] Serum was prepared from tail blood and leptin levels were analyzed (Meso Scale Discovery, K152BYC, Rockville, Md., USA). After blood collection, animals were given saline or leptin injections (10 mg/kg) and food intake data was recorded for the first 4 hours of darkness.

[3] = after 8 weeks of administration, compared to vehicle

## CN(C)C(=N)N=C(N)N [metformin]
FATZO mice [1]; [3]
  AUC for glucose during OGTT: significant reductions
  calculated insulin sensitivity index (ISI): significant improvements
  insulin AUC during OGTT: significant improvements
FATZO mice [1]
  serum glucose concentrations in the fed state: 250.0 ± 12.8 mg/dL
  body weight change over the 8-week observation period: -0.2 ± 0.6 g

## leptin
FATZO mice [2]; FATZO at 10 weeks of age
  food intake after leptin injection: no significant reduction
FATZO mice [2]; young FATZO animals (5 weeks)
  food consumption after leptin injection: significantly reduced

## CN(CCOc1ccc(CC2SC(=O)NC2=O)cc1)c1ccccn1 (stereo not drawn) [rosiglitazone]
FATZO mice [1]
  serum glucose concentrations in the fed state: 233.3 ± 7.7 mg/dL
  body weight change over the 8-week observation period: 5.3 ± 0.7 g
